Measurements: PMC12764776, “Structural basis of specific lysine transport by Pseudomonas aeruginosa permease LysP” (Nature Communications, 2025)

Columns and labels:
[1] = target: T1, lysine-specific permease (LysP) (Pseudomonas aeruginosa, UniProt Q9HVG3); test: microscale thermophoresis; assay type: binding; parameters: purified GFP-free LysP in LMNG
[2] = target: T1, lysine-specific permease (LysP); test: cryo-EM structure ([…] Å) and microscale thermophoresis; [3H]L-lysine transport in proteoliposomes (cold L-lysine IC50 […]); assay type: binding; parameters: purified GFP-free LysP in LMNG (MST); LysP-Nb5755 complex (cryo-EM); with nanobody Nb5755 (cryo-EM structure only)
[3] = target: T1, lysine-specific permease (LysP); test: microscale thermophoresis; inhibition of [3H]L-lysine transport in LysP proteoliposomes; assay type: binding; parameters: purified GFP-free LysP in LMNG
[4] = target: T2, LysP-GFP fusion (P. aeruginosa LysP with GFP-His8) (P. aeruginosa strain PAO1, UniProt Q9HVG3); test: GFP thermal shift (GFP-TS) assay; membranes with LysP-GFP solubilised in 150 mM NaCl, 20 mM Tris-HCl pH 7.5, 1% DDM with or without 1 uM Nb5755, 1 h at 4 °C; 1% beta-OG added; heated 10 min at 4-100 °C; GFP fluorescence of the supernatant; conditions: one partner purified
T2 construct: lysine-specific permease LysP, P. aeruginosa strain PAO1, UniProt Q9HVG3; the same construct as m1 in pWaldo-GFPd, with the GFP-His8 fusion not cut off; The GFP fluorescence is the read-out of the GFP-TS assay; source: E. coli (DE3) C43, in membranes solubilised with 1% DDM, not purified

With `NCCCC[C@@H](N)C(=O)O` [D-lysine] the Kd [1] was 151 µM.

In the case of `NCCCC[C@H](N)C(=O)O` [L-lysine], the Kd [2] is reported as 14 µM.

`NCCSC[C@H](N)C(=O)O` [L-4-thialysine, S-(2-aminoethyl)-L-cysteine] showed a Kd [3] of 31 µM.

B1: nanobody Nb5755 (VHH)
VHH: QVQLQESGGGLVQGGSLRLSCAASGRTFSIYGMAWVRQASGKEREFVAAMPRGGGTTNYADSVKGRFSISRDNAKNTVDLQMNSLKPEDTAVYYCVADRGFTLRLGIQHDYWGQGTQVTVSS
notes: raised in a llama immunised with LysP and selected by phage display; Library cloned into the phage display vector pMESy4, which bears the C-terminal His6 and EPEA tags; also called Nanobody 5755; CA5755; source: E. coli BL21 (DE3), periplasm, purified (Ni-NTA, SEC)
In the case of B1, the “increase in melting temperature” value [4] is reported as 20 °C.
